Measured values as given in patent publication US20030165854A1, “Marker genes responding to treatment with toxins” (priority 2000, published 2003).

Experiments:
[1] = tested on: rat liver cDNAs SEQ ID NOs: 1-61; type: in vivo, Han/Wistar rat; conditions: Strain HW; for Maximum Abundance, SEQ ID NO 14, Clone ID 700330824: Sex F
[2] = tested on: rat liver cDNAs SEQ ID NOs: 1-61; type: in vivo, Han/Wistar rat; conditions: Strain HW, Sex F

Compound | Maximum Abundance, SEQ ID NO 17, Clone ID 700059927 [1] | Maximum Abundance, SEQ ID NO 23, Clone ID 700067778 [1] | Maximum Abundance, SEQ ID NO 24, Clone ID 700123633 [1] | Maximum Abundance, SEQ ID NO 28, Clone ID 700135850 [1] | Maximum Abundance, SEQ ID NO 32, Clone ID 700144406 [1] | Maximum Abundance, SEQ ID NO 33, Clone ID 700175249 [1] | Maximum Abundance, SEQ ID NO 61, Clone ID 701637512 [1] | Maximum Abundance, SEQ ID NO 12, Clone ID 700062506 [2] | Maximum Abundance, SEQ ID NO 13, Clone ID 700135749 [2] | Maximum Abundance, SEQ ID NO 15, Clone ID 700024728 [1] | Maximum Abundance, SEQ ID NO 16, Clone ID 700024834 [1] | Maximum Abundance, SEQ ID NO 19, Clone ID 700062240 [1] | Maximum Abundance, SEQ ID NO 21, Clone ID 700064131 [1] | Maximum Abundance, SEQ ID NO 31, Clone ID 700140450 [1] | Maximum Abundance, SEQ ID NO 34, Clone ID 700177158 [1] | Maximum Abundance, SEQ ID NO 38, Clone ID 700185871 [1] | Maximum Abundance, SEQ ID NO 41, Clone ID 700248367 [1] | Maximum Abundance, SEQ ID NO 45, Clone ID 700305380 [1] | Maximum Abundance, SEQ ID NO 48, Clone ID 700363174 [1] | Maximum Abundance, SEQ ID NO 50, Clone ID 700480077 [1] | other results
NN [Hydra, hydrazine] | 4 | 3 | 3 | 3 | 4 | 7 | 4 | 3 | 4 |  |  |  |  |  |  |  |  |  |  |  | 
CC(=O)Nc1cccc2c1-c1ccccc1C2 [4-AAF, 4-acetylaminofluorene] |  |  |  | 3 |  |  | 4 | 3 | 4 | 3 | 3 | 5 | 3 | 8 | 3 | 3 | 3 | 4 | 3 | 3 | Maximum Abundance, SEQ ID NO 22, Clone ID 700065081 [1]: 3; Maximum Abundance, SEQ ID NO 25, Clone ID 700127949 [1]: 3; Maximum Abundance, SEQ ID NO 26, Clone ID 700132557 [1]: 7; Maximum Abundance, SEQ ID NO 27, Clone ID 700135733 [1]: 4; Maximum Abundance, SEQ ID NO 30, Clone ID 700140375 [1]: 3; Maximum Abundance, SEQ ID NO 37, Clone ID 700182016 [1]: 3; Maximum Abundance, SEQ ID NO 43, Clone ID 700253694 [1]: 3; Maximum Abundance, SEQ ID NO 44, Clone ID 700303850 [1]: 3; Maximum Abundance, SEQ ID NO 51, Clone ID 700483222 [1]: 3; Maximum Abundance, SEQ ID NO 53, Clone ID 700818852 [1]: 5; Maximum Abundance, SEQ ID NO 54, Clone ID 700937735 [1]: 8; Maximum Abundance, SEQ ID NO 57, Clone ID 701341861 [1]: 3; Maximum Abundance, SEQ ID NO 58, Clone ID 701574951 [1]: 3; Maximum Abundance, SEQ ID NO 14, Clone ID 700330824 [1]: 3
S=C=Nc1cccc2ccccc12 [ANIT, α-naphthylisothiocyanate] | 4 | 3 | 3 |  | 4 | 7 | 4 | 3 |  | 3 | 3 | 5 | 3 | 8 | 3 | 3 | 3 | 4 | 3 | 3 | Maximum Abundance, SEQ ID NO 18, Clone ID 700060675 [1]: 4; Maximum Abundance, SEQ ID NO 20, Clone ID 700063569 [1]: 3; Maximum Abundance, SEQ ID NO 29, Clone ID 700137416 [1]: 4; Maximum Abundance, SEQ ID NO 35, Clone ID 700179766 [1]: 3; Maximum Abundance, SEQ ID NO 36, Clone ID 700181614 [1]: 3; Maximum Abundance, SEQ ID NO 39, Clone ID 700198357 [1]: 3; Maximum Abundance, SEQ ID NO 40, Clone ID 700230123 [1]: 4; Maximum Abundance, SEQ ID NO 49, Clone ID 700478138 [1]: 5; Maximum Abundance, SEQ ID NO 51, Clone ID 700483222 [1]: 3; Maximum Abundance, SEQ ID NO 53, Clone ID 700818852 [1]: 5; Maximum Abundance, SEQ ID NO 54, Clone ID 700937735 [1]: 8; Maximum Abundance, SEQ ID NO 55, Clone ID 701197728 [1]: 3; Maximum Abundance, SEQ ID NO 56, Clone ID 701257766 [1]: 3; Maximum Abundance, SEQ ID NO 57, Clone ID 701341861 [1]: 3; Maximum Abundance, SEQ ID NO 60, Clone ID 701597659 [1]: 3; Maximum Abundance, SEQ ID NO 14, Clone ID 700330824 [1]: 3
